Target: Alkaline phosphatase, tissue-nonspecific isozyme (Homo sapiens) (UniProt P05186)
Assay: potency against alkaline phosphatase TNAP – biochemical, luminescent, dose response, SAR follow-up (AID 1056)
Details: purified human TNAP, luminescent substrate read-out

IC50	SMILES
375 nM	O=C(c1cc(-c2ccc(Cl)cc2Cl)n[nH]1)N1CCN(CCO)CC1
119 nM	CN(C)C(=O)c1cc(-c2ccc(Cl)cc2Cl)n[nH]1
81.5 nM	CC(C)CNC(=O)c1cc(-c2ccc(Cl)cc2Cl)n[nH]1
488 nM	CCN1CCN(C(=O)c2cc(-c3ccc(Cl)cc3Cl)n[nH]2)CC1
511 nM	COc1cc(C)c(Cl)cc1S(=O)(=O)Nc1cccnc1
93800 nM	O=C(CNc1nc2ccccc2[nH]1)c1ccc(O)c(O)c1
41100 nM	Cc1cn(CC(=O)c2ccc(O)c(O)c2)cn1
47500 nM	O=C(Cn1cnc(Br)c1)c1ccc(O)c(O)c1
574 nM	O=C(c1cc(-c2ccc(Cl)cc2Cl)n[nH]1)N1CCOCC1
30600 nM	O=C1C2C3C=CC(C3)C2C(=O)N1c1n[nH]c(CCc2ccccc2)n1 (stereo not given)
134 nM	O=C(NCCO)c1cc(-c2cc(F)c(F)cc2F)n[nH]1
46.8 nM	O=C(c1cc(-c2ccc(Cl)cc2Cl)n[nH]1)N(CCO)CCO
8740 nM	Cc1nc(Br)cn1CC(=O)c1ccc(O)c(O)c1
35 nM	O=C(NCCO)c1cc(-c2ccc(F)cc2F)n[nH]1
1130 nM	COc1cc(S(=O)(=O)Nc2cccnc2)c(OC)cc1Cl
398 nM	CC(C)(C)NC(=O)c1cc(-c2ccc(Cl)cc2Cl)n[nH]1
44.4 nM	O=C(NCCO)c1cc(-c2ccc(Cl)cc2Cl)n[nH]1
27900 nM	O=C1C2CC=CCC2C(=O)N1c1n[nH]c(CCc2ccccc2)n1 (stereo not given)
1680 nM	COc1cc(C)c(C)cc1S(=O)(=O)Nc1cccnc1

More lines, now with the values behind:

SMILES	IC50
COc1ccc2c(c1OC)C(=O)OC2CC(=O)c1ccc(O)c(O)c1 (stereo not given)	29200 nM
CCN(CC)C(=O)c1cc(-c2ccc(Cl)cc2Cl)n[nH]1	285 nM
COCCNC(=O)c1cc(-c2ccc(Cl)cc2Cl)n[nH]1	46.4 nM
COc1ccc(C)cc1S(=O)(=O)Nc1cnc2ccccc2c1	649 nM
O=C(c1cc(-c2cc(F)c(Cl)cc2Cl)n[nH]1)N(CCO)CCO	127 nM
O=C1C2CC=CCC2C(=O)N1c1n[nH]c(-c2cccnc2)n1 (stereo not given)	10500 nM
CN(C)C(=O)c1cc(-c2cc(F)c(Cl)cc2Cl)n[nH]1	324 nM
CC(C)NC(=O)c1cc(-c2cc(F)c(Cl)cc2Cl)n[nH]1	4850 nM
COc1ccc(OC)c(S(=O)(=O)Nc2cccnc2)c1	1060 nM
O=C1C2CCCCC2C(=O)N1c1n[nH]c(Cc2ccccc2)n1 (stereo not given)	1570 nM
O=C1C2CC=CCC2C(=O)N1c1n[nH]c(-c2ccco2)n1 (stereo not given)	4680 nM
COc1ccc(F)cc1S(=O)(=O)Nc1cccnc1	1290 nM
COc1cccc(S(=O)(=O)Nc2cnc3ccccc3c2)c1	25800 nM
O=C(NCCCO)c1cc(-c2ccc(Cl)cc2Cl)n[nH]1	31.3 nM
CCOc1cc(C)c(Cl)cc1S(=O)(=O)Nc1cccnc1	691 nM
O=C(NCCCO)c1cc(-c2cc(F)c(Cl)cc2Cl)n[nH]1	55.8 nM
O=C(NCCCCO)c1cc(-c2ccc(Cl)cc2Cl)n[nH]1	34.5 nM
CC(C)NC(=O)c1cc(-c2ccc(Cl)cc2Cl)n[nH]1	51.1 nM
COc1cc(S(=O)(=O)Nc2cccnc2)c(OC)cc1Br	1550 nM
O=C1c2ccccc2C(=O)N1c1n[nH]c(Cc2ccccc2)n1	670 nM
CCOc1ccc(Cl)cc1S(=O)(=O)Nc1cccnc1	537 nM
O=C(c1cc(-c2ccc(Cl)cc2Cl)n[nH]1)N1CCCCCC1	1450 nM
CC(C)CCNC(=O)c1cc(-c2ccc(Cl)cc2Cl)n[nH]1	459 nM
O=C(NCCO)c1cc(-c2cc(F)c(Cl)cc2Cl)n[nH]1	100 nM
COc1cc(S(=O)(=O)Nc2cccnc2)c(OC)cc1C	1490 nM
CN1CCN(C(=O)c2cc(-c3ccc(Cl)cc3Cl)n[nH]2)CC1	828 nM

Source: PubChem BioAssay AID1056 (Sanford-Burnham Center for Chemical Genomics, 2008)
